Laboratory results from patent publication US20230053688A1, “METHODS TO ALTER LATENCY IN EBV+ MALIGNANCIES” (Cornell University, priority 2020, published 2023).
Structures can show the parent of a compound that is named as a salt. Where two headings read alike, the source gives them in different places.

System: LMP1 expression in Kem I cells
Experiment: microbe, parasite or virus in culture
Type: cell-based, EBV
Conditions: for Average LMP1 Fold Increase / Replicate 1-LMP1 Fold Increase / Replicate 2-LMP1 Fold Increase: Kem I cells, 2.5 uM, 48 hours; for Average LMP1 Fold Increase: average of replicates 1 and 2; for Replicate 1-LMP1 Fold Increase / Replicate 2-LMP1 Fold Increase: fold change in LMP1 transcript vs vehicle; for fold induction at 2.5 µM: human gammaherpesvirus 4, 48 h
[1] = read-out: Average LMP1 Fold Increase, Kem I cells, 2.5 uM, 48 hours, average of replicates 1 and 2
[2] = read-out: Replicate 1-LMP1 Fold Increase, Kem I cells, 2.5 uM, 48 hours, fold change in LMP1 transcript vs vehicle
[3] = read-out: Replicate 2-LMP1 Fold Increase, Kem I cells, 2.5 uM, 48 hours, fold change in LMP1 transcript vs vehicle

Compound | Average LMP1 Fold Increase | Replicate 1-LMP1 Fold Increase | Replicate 2-LMP1 Fold Increase | fold induction at 2.5 µM [1] | fold induction at 2.5 µM [2] | fold induction at 2.5 µM [3] | also measured
CCOC(=O)CCNc1cc(N2CCc3ccccc3CC2)nc(-c2ccccn2)n1.Cl [GSK J4 HCl] | 32.34 | 48.53 | 16.15 |  |  |  | 
CCc1c2c(nc3ccc(OC(=O)N4CCC(N5CCCCC5)CC4)cc13)-c1cc3c(c(=O)n1C2)COC(=O)[C@]3(O)CC [Irinotecan] | 0.59 |  |  |  |  |  | 
CCC(=O)NCC[C@@H]1CCc2ccc3c(c21)CCO3 [Ramelteon] |  |  |  | 0.33 | 0.45 | 0.22 | 
COc1cc2nc(N3CCN(C(=O)C4COc5ccccc5O4)CC3)nc(N)c2cc1OC (stereo not shown) [Doxazosin Mesylate] |  |  |  | 0.81 | 0.67 | 0.95 | 
Fc1cc(F)c2c(c1)[C@H]1C=CC[C@H]1C(c1cccnc1)N2 (mixture of isomers) [Golgicide A] | 0.27 | 0.34 | 0.19 |  |  |  | 
CN[C@@H](C)C(=O)N[C@H](C(=O)N1CCC[C@H]1C(=O)Nc1snnc1-c1ccccc1)C1CCCCC1 [GDC-0152] | 0.68 | 0.76 | 0.59 |  |  |  | 
COc1c(C)c(C(=O)c2ccc(N)c(C(=O)[O-])c2)n2ccccc12.[Na+] [SSR128129E] | 0.44 | 0.36 | 0.52 |  |  |  | 
COCCCC/C(=N\OCCN)c1ccc(C(F)(F)F)cc1 [Fluvoxamine maleate] |  |  |  | 0.67 | 0.97 | 0.37 | 
CCNC(=O)[C@H]1O[C@@H](n2cnc3c(N)nc(NCCc4ccc(CCC(=O)O)cc4)nc32)[C@H](O)[C@@H]1O [CGS 21680 HCl] |  |  |  | 0.7 | 0.72 | 0.68 | 
COc1ccc(CNCc2cccc3ccccc23)cc1.Cl [ML133 HCl] | 0.54 | 0.42 | 0.67 |  |  |  | 
Cl.Cl.O=S(=O)(NCCNC/C=C/c1ccc(Br)cc1)c1cccc2cnccc12 [H 89 2HCl] | 0.68 | 0.54 | 0.82 |  |  |  | 
NC(=O)c1ncn([C@@H]2O[C@H](CO)[C@@H](O)[C@H]2O)c1N [Acadesine] |  |  |  | 0.58 | 0.57 | 0.59 | 
COc1ccc2c(c1)c(CC(=O)N1CCOCC1)c(C)n2C(=O)c1ccc(Cl)cc1 [BML-190] | 0.77 | 1.01 | 0.53 |  |  |  | 
COc1ccc2nc([S@@+]([O-])Cc3ncc(C)c(OC)c3C)[nH]c2c1 [Esomeprazole Sodium] |  |  |  | 0.3 | 0.16 | 0.44 | 
C=CC(=O)Nc1cccc(Nc2nc(Nc3ccc(Oc4ccnc(C(=O)NC)c4)cc3)ncc2F)c1 [CNX-774] | 0.62 | 0.51 | 0.73 |  |  |  | 
CN(C)CCc1c[nH]c2ccc(Cn3cncn3)cc12 [Rizatriptan Benzoate] |  |  |  | 0.15 | 0.1 | 0.2 | 
CC(C)(C)c1cc(C(C)(C)C)c(NC(=O)c2c[nH]c3ccccc3c2=O)cc1O [Ivacaftor (VX-770)] | 1.35 | 2.22 | 0.49 |  |  |  | 
c1ccc(CC2=NCCN2)cc1 [Tolazoline HCl] |  |  |  |  |  |  | fold induction at 2.5 µM (read-out: Average LMP1 Fold Increase, Kem I cells, dose 2.5 uM, 48 hours, LMP1 transcript by in-well qRT-PCR, average of the two replicates): 0.26; fold induction at 2.5 µM (read-out: Replicate 1-LMP1 Fold Increase, Kem I cells, dose 2.5 uM, 48 hours, LMP1 transcript by in-well qRT-PCR, screen replicate 1): 0.26; fold induction at 2.5 µM (read-out: Replicate 2-LMP1 Fold Increase, Kem I cells, dose 2.5 uM, 48 hours, LMP1 transcript by in-well qRT-PCR, screen replicate 2): 0.27
O=C(/C=C/c1ccc(O)c(O)c1)OCCc1ccccc1 [Caffeic Acid Phenethyl Ester] |  |  |  | 0.46 | 0.59 | 0.33 | 
CC(=O)c1c(C)c2cnc(Nc3ccc(N4CCNCC4)cn3)nc2n(C2CCCC2)c1=O.Cl [Palbociclib (PD-0332991) HCl] | 1.34 | 0.77 | 1.91 |  |  |  | 
